Assays:
[1] = test system: T1, free laccase from F. fomentarius (FF); conditions: read-out: Km Free Laccase; free enzyme from crude culture supernatant; ABTS 0.05-2.0 mM; general assay buffer 0.1 M sodium acetate pH 4.5
T1 construct: gene lac

[2] = test system: T2, free laccase from T. versicolor (TV); conditions: read-out: Km Free Laccase; free enzyme from crude culture supernatant; ABTS 0.05-2.0 mM; general assay buffer 0.1 M sodium acetate pH 4.5
T2 construct: gene LCC1

Km [1]: 87 µM | Km [2]: 1900 µM
SMILES: CCn1c(=NN=c2sc3cc(S(=O)(=O)O)ccc3n2CC)sc2cc(S(=O)(=O)O)ccc21 [ABTS]

Source: paper PMC5800123, “Preparation and Optimisation of Cross-Linked Enzyme Aggregates Using Native Isolate White Rot Fungi Trametes versicolor and Fomes fomentarius for the Decolourisation of Synthetic Dyes” (International Journal of Environmental Research and Public …, 2017)
